# In patent US8637528B2, “Use of PDE7 inhibitors for the treatment of movement disorders” (Omeros Corporation, priority 2007, dated 2014):
# What was measured:
# Dopamine D3 receptor = Dopamine D3 receptor (Homo sapiens (Human), UniProt P35462); assay: Dopamine D3 radioligand binding assay; details: 10.0 μM
# Dopamine D4.2 receptor = Dopamine D4.2 receptor (Homo sapiens (Human), UniProt P21917, DEL265-296); assay: Dopamine D4.2 radioligand binding assay; details: 10.0 μM
# Dopamine D1 receptor = Dopamine D1 receptor (Homo sapiens (Human), UniProt P21728); assay: Dopamine D1 radioligand binding assay; details: 10.0 μM
# Dopamine D1 receptor, sequence (P21728 whole entry): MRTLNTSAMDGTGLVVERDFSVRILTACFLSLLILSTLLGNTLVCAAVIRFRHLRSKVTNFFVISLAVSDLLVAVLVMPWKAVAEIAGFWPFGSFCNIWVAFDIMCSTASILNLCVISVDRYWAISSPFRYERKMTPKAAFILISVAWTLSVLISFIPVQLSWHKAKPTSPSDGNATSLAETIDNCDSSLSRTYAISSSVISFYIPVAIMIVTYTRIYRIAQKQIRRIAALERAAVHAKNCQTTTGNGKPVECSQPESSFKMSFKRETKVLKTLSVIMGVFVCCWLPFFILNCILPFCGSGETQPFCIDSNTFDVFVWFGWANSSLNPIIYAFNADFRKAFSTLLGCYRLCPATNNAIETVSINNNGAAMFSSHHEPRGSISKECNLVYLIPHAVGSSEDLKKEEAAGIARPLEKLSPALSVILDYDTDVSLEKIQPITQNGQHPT
# PDE7B = PDE7B (Homo sapiens (Human), UniProt Q9NP56); assay: initial PDE7B inhibition assay, different assay methodology; assay type: biochemical; details: reliability questioned
# PDE7B, sequence (Q9NP56 whole entry, species assumed): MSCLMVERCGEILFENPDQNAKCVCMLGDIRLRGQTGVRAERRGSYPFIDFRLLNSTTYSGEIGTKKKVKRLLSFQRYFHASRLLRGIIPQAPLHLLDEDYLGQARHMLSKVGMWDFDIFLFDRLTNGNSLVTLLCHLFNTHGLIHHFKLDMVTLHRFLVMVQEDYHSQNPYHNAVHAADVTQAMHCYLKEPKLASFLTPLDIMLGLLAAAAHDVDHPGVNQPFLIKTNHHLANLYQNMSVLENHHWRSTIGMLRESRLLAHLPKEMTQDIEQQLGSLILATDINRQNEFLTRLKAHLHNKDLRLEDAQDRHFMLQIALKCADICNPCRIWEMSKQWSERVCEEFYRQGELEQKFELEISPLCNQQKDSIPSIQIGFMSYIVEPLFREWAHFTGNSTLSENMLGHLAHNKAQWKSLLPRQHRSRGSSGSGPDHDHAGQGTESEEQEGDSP
# PDE7A = PDE7A (Homo sapiens (Human), UniProt Q13946); assay: initial PDE7A inhibition assay, different assay methodology; assay type: biochemical; details: read-out: PDE7A IC50 in the initial assay work
# PDE7A, sequence (Q13946 whole entry, species assumed): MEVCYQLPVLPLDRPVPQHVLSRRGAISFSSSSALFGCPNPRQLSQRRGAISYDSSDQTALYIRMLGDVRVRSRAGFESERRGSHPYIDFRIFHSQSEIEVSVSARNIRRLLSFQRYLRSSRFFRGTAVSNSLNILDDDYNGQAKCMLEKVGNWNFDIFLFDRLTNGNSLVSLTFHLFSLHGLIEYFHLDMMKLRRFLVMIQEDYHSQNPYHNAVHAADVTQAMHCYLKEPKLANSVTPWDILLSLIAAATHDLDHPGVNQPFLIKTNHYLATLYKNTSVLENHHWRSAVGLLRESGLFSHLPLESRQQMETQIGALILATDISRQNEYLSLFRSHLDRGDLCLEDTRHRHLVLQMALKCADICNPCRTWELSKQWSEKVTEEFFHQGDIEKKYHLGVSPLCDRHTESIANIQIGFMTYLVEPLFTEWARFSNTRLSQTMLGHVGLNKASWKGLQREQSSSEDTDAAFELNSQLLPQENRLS
# gabapentin receptor = gabapentin receptor (Rattus norvegicus, UniProt P54290); assay: Gabapentin radioligand binding assay; details: 10.0 μM
# gabapentin receptor, sequence (P54290 25-944 limits assumed): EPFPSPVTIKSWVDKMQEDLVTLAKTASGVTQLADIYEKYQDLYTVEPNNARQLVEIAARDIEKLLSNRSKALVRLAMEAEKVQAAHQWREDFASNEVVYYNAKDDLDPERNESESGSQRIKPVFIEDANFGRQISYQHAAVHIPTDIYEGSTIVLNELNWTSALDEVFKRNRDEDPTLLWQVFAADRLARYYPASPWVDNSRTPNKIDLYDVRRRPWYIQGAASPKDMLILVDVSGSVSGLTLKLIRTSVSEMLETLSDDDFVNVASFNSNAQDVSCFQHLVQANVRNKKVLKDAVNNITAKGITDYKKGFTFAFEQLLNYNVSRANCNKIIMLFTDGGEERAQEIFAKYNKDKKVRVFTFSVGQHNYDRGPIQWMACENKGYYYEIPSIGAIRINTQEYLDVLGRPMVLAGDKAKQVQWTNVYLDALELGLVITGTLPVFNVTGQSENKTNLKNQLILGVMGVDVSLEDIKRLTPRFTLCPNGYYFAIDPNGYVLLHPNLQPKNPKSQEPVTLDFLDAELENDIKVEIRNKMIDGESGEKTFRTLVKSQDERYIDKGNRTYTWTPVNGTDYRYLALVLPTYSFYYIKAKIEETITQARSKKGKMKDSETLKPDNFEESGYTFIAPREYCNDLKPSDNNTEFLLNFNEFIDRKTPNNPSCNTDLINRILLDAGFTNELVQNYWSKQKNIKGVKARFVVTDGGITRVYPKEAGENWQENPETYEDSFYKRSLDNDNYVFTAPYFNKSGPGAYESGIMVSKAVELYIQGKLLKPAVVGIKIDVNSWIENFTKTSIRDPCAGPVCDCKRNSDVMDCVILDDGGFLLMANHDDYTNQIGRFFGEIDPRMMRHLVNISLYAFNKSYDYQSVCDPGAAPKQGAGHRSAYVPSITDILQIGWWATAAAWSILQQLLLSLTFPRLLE
# gabapentin receptor, sequence (P54290 945-1091 limits assumed): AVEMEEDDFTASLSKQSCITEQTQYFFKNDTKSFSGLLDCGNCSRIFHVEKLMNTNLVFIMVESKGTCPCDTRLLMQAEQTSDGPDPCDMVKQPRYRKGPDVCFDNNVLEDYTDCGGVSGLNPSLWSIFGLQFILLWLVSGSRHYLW
# [1] = molecular target: Dopamine Transporter (DAT) (Homo sapiens (Human), UniProt Q01959); assay: Dopamine Transporter (DAT) radioligand binding assay; details: 10.0 μM
# Dopamine D2L receptor = Dopamine D2L receptor (Homo sapiens (Human), UniProt P14416); assay: Dopamine D2L radioligand binding assay; details: 10.0 μM
# Dopamine D2L receptor, sequence (P14416 whole entry): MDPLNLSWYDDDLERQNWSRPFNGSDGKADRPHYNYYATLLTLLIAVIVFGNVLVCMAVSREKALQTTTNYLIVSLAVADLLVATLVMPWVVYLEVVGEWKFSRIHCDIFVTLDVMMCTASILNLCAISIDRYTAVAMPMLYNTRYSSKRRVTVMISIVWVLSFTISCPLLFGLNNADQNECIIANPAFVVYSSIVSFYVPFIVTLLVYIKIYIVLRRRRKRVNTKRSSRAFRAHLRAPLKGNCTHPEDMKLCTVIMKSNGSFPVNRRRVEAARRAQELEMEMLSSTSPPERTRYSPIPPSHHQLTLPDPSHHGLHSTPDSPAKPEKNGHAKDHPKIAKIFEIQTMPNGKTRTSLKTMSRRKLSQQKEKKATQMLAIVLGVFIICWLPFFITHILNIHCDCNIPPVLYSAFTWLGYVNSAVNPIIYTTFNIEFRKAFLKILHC
# Tyrosine Hydroxylase = Tyrosine Hydroxylase (Rattus norvegicus (Rat), UniProt P04177); assay: Tyrosine Hydroxylase enzyme assay; assay type: biochemical; details: 10.0 μM
# Tyrosine Hydroxylase, sequence (P04177 whole entry): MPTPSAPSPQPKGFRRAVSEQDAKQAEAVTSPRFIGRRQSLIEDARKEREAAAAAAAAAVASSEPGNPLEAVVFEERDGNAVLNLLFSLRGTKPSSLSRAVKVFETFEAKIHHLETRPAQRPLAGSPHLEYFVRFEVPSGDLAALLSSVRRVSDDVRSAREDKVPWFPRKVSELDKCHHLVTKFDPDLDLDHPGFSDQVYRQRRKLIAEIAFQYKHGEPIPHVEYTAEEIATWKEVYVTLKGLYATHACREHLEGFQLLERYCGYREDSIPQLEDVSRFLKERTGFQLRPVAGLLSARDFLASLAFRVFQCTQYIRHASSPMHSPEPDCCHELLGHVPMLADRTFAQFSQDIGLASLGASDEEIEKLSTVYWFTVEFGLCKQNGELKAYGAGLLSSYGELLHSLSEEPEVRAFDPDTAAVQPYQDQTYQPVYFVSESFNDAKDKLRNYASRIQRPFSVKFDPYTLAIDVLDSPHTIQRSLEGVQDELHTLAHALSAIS
# Procedure: Tyrosine Hydroxylase was assayed as described in Roskoski, R., Jr., et al., J. Biochem 218:363-370 (1993) with the following modifications. Tyrosine Hydroxylase was isolated from Wistar rat brain. The substrate was 100 μM L-[3,5-^3H]Tyrosine+L-Tyrosine. The vehicle control was 1% DMSO. Compound OM69 was tested at 10 μM in incubation buffer (125 mM MES, pH 6.0, 0.5 mg/ml Catalase, 12.5 mM DTT, 0.5 mM (6R)-5,6,7,8-Tetrahydrobiopterin). The reaction was pre-incubated for 15 minutes at 37° C. Tyrosine Hydroxylase enzyme was added, and the reaction was incubated for 20 minutes at 37° C. [^3H]-H20 was quantitated.
# [2] = molecular target: Catechol-O-Methyltransferase (COMT) (Sus scrofa, UniProt D3K5L3); assay: biochemical; assay type: biochemical, pig; details: 10.0 μM
# Catechol-O-Methyltransferase (COMT), sequence (D3K5L3 1-270): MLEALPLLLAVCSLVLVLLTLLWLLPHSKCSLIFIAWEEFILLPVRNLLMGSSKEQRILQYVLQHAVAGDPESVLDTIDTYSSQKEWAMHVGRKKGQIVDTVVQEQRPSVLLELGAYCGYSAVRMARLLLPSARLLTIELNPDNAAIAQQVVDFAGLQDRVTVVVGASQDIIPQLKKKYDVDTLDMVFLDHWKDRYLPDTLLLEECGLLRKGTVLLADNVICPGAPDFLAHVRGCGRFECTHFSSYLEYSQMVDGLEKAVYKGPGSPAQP
# Monoamine Oxidase MAO-B = Monoamine Oxidase MAO-B (Homo sapiens (Human), UniProt P27338); assay: Monoamine Oxidase MAO-B enzyme assay; assay type: biochemical
# Monoamine Oxidase MAO-B, sequence (P27338 whole entry, looked up): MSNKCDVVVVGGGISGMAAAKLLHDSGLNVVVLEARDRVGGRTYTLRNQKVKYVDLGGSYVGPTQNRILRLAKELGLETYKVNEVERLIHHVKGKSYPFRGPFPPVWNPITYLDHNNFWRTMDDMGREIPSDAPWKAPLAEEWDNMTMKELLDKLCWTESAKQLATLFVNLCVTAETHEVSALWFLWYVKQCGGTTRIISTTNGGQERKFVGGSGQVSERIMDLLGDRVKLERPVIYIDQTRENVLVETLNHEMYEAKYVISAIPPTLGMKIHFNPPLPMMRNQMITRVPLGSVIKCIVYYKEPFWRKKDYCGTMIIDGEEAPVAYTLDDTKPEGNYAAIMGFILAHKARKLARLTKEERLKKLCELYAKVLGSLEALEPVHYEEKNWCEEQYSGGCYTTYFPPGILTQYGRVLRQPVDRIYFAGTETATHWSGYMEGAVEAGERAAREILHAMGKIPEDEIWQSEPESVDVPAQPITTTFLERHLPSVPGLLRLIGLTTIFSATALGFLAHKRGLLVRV
# Dopamine D4.2 receptor, sequence (P21917 other isoform, or with tags, fused parts or gaps del 265-296): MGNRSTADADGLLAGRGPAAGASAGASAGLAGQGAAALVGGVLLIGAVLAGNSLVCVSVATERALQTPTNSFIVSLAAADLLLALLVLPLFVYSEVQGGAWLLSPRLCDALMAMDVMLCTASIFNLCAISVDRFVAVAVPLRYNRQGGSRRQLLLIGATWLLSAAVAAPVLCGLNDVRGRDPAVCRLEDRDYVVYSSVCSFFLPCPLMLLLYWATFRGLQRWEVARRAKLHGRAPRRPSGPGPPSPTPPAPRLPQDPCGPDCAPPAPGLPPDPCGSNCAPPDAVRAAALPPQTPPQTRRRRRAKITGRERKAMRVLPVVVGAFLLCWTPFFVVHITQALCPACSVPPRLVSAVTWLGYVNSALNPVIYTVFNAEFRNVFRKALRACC
# Dopamine D3 receptor, sequence (P35462 whole entry): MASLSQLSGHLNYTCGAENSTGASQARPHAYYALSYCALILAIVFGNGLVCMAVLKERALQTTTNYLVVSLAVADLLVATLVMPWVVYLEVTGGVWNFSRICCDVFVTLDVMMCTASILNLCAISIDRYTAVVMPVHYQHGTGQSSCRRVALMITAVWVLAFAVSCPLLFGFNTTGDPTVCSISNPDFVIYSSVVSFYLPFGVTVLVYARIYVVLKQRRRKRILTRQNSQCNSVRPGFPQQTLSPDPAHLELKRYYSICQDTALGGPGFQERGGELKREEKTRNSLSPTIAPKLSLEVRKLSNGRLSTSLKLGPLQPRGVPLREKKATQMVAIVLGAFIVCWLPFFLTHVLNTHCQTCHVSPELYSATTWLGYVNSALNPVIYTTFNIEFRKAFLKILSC
compound,measurement,setting,value
COc1cc(N)ccc1-c1cc2c(c(=O)[nH]1)C(C1CCCCC1)N=[N+]2C (stereo not drawn) [OM69],percent inhibition of ligand binding to Dopamine D3,Dopamine D3 receptor,−13.0%
same,percent inhibition of ligand binding to Dopamine D4.2,Dopamine D4.2 receptor,−16.0%
same,percent inhibition of ligand binding to Dopamine D1,Dopamine D1 receptor,−5.0%
same,IC50,PDE7B,0.0969 µM
same,IC50,PDE7A,0.0035 µM
same,"percent inhibition of ligand binding, Gabapentin",gabapentin receptor,15.0%
same,percent inhibition of ligand binding to Dopamine Transporter (DAT),[1],18.0%
same,percent inhibition of ligand binding to Dopamine D2L,Dopamine D2L receptor,4.0%
same,percent inhibition of Tyrosine Hydroxylase enzymatic activity,Tyrosine Hydroxylase,4.0%
same,percent inhibition of COMT enzymatic activity,[2],19.0%
same,percent inhibition of MAO-B enzymatic activity,"Monoamine Oxidase MAO-B; Exp #1, 10.0 μM",49.0%
same,percent inhibition of MAO-B enzymatic activity,"Monoamine Oxidase MAO-B; Exp #2, 1.0 μM",27%
same,percent inhibition of MAO-B enzymatic activity,"Monoamine Oxidase MAO-B; Exp #2, 10.0 μM",67.0%
same,IC50,"Monoamine Oxidase MAO-B; estimated from 27% inhibition at 1 μM, read-out: MAO-B IC50 indicated by the percentage inhibition",~2.7 µM
same,inhibition of MAO-B at brain concentration,Monoamine Oxidase MAO-B; if present in the brain at 17 nM,less than 0.7%
